Consider 19 compounds from US5144029A, “Derivatives of 1-[3-(4-hydroxyphenyl) 1-hydroxy 1-propyl] benzene substituted in position 2 by an aminoalkyleneoxy chain, the method of preparing same and the application thereof to therapeutics” (Delalande S.A., priority 1988, dated 1992).

The LD50 is the dose at which mortality reaches 50%.

The test system of the first series is basilar artery of a rabbit (contraction induced by KCl). The series can be described thus: Contraction of removed rabbit basilar artery in a hyperpotassic medium (calcium antagonistic activity). Format: cell-based. To be noted: Oryctolagus cuniculus, KCl at 35 mmoles, read-out: IC50 (concentration which reduces by 50% the amplitude of the contraction induced by KCl). On the procedure:
The protocol of this test is the following. The rabbit is anaesthetized with pentobarbital at a dose of 30 mg/kg then sacrificed by exsanguination and decapitated at the third cervical vertebra. The basilar artery is removed (1.5 cm) between the vertebral arteries and the Willis's polygon. The basilar artery is then cut in a spiral at an angle of 45°. It is fixed by means of a curved needle between an L shaped glass support and a movement sensor (Grass, type FT03). A mechanical tension of 500 mg is applied to the vessel, before letting it reach its equilibrium condition.
For a period of 1 hour, the vessel is rinsed every 20 minutes, until a stable level is obtained.
The tonic contraction following depolarization caused by KCl is dependent on the calcic movements for it is abolished by the suppression of calcium in the survival medium.
The concentrations (in nM) are measured which reduce by 50% the amplitude of the contraction induced by the KCl at 35 mmoles.
For `C=CCOc1ccc(OC)c(C(O)CCc2ccc(O)cc2)c1OCCN1CCCCC1` (stereo not drawn) [compound 167], the IC50 stood at 53 nM.

Turning to `CCCCOc1ccc(OC)c(OCCN2CCCCC2)c1C(O)CCc1ccc(O)cc1` (stereo not drawn) [compound 150], the IC50 came to 100 nM.

Regarding `CCSc1ccc(OC)c(C(O)CCc2ccc(O)cc2)c1OCCN1CCCCC1` (stereo not drawn) [compound 175], the IC50 amounted to 31 nM.

On to `COCCOc1ccc(OC)c(C(O)CCc2ccc(O)cc2)c1OCCN1CCCCC1` (stereo not drawn) [compound 171], for which the IC50 was over 100 nM.

Consider `COc1ccc(SC)c(OCCN2CCCCC2)c1C(O)CCc1ccc(O)cc1` (stereo not drawn) [compound 174], for which the IC50 turned out to be 27 nM.

For the compound `COc1ccc(OC(C)C)c(C(O)CCc2ccc(O)cc2)c1OCCN1CCCCC1` (stereo not drawn) [compound 154], the IC50 amounted to 13 nM.

Consider `COc1ccc(O)c(OCCN2CCCCC2)c1C(O)CCc1ccc(O)cc1` (stereo not drawn) [compound 169], for which the IC50 was over 100 nM.

On to `COc1ccc(OCc2ccccc2)c(OCCN2CCCCC2)c1C(O)CCc1ccc(O)cc1` (stereo not drawn) [compound 168], for which the IC50 is over 100 nM.

As to `CCCOc1ccc(OC)c(C(O)CCc2ccc(O)cc2)c1OCCN1CCCCC1` (stereo not drawn) [compound 166], the IC50 stood at 120 nM.

As for `COc1ccc(OCc2ccccc2)c(C(O)CCc2ccc(O)cc2)c1OCCN1CCCCC1` (stereo not drawn) [compound 146], the IC50 is over 100 nM.

Take `COc1ccc(O)c(C(O)CCc2ccc(O)cc2)c1OCCN1CCCCC1` (stereo not drawn) [compound 148]: the IC50 was over 100 nM.

Turning to `CCOc1ccc(OC)c(OCCN2CCCCC2)c1C(O)CCc1ccc(O)cc1` (stereo not drawn) [compound 160], the IC50 was 6 nM.

In the case of `COc1ccc(C)c(C(O)CCc2ccc(O)cc2)c1OCCN1CCCCC1` (stereo not drawn) [compound 177], the IC50 is 30 nM.

Regarding `COc1ccc(OCC(F)(F)F)c(OCCN2CCCCC2)c1C(O)CCc1ccc(O)cc1` (stereo not drawn) [compound 137], the IC50 was over 100 nM.

On to `CCOc1ccc(OC)c(C(O)CCc2ccc(O)cc2)c1OCCN1CCCCC1` (stereo not drawn) [compound 164], for which the IC50 worked out at 24 nM.

Turning to `COc1ccc(OC2CCCCC2)c(C(O)CCc2ccc(O)cc2)c1OCCN1CCCCC1` (stereo not drawn) [compound 158], the IC50 was over 100 nM.

On to `COc1ccc(OC2CCCCC2)c(OCCN2CCCCC2)c1C(O)CCc1ccc(O)cc1` (stereo not drawn) [compound 173], for which the IC50 was over 100 nM.

With `CCCOc1ccc(OC)c(OCCN2CCCCC2)c1C(O)CCc1ccc(O)cc1` (stereo not drawn) [compound 152], the IC50 was 10 nM.

Regarding `CCCCCCCCOc1ccc(OC)c(OCCN2CCCCC2)c1C(O)CCc1ccc(O)cc1` (stereo not drawn) [compound 156], the IC50 was over 100 nM.

Test system in a further series: not listed separately
The series can be described thus: Acute toxicity (LD50) in mice, method of Litchfield and Wilcoxon. To be noted: mouse, in vivo, iv.
For the compound `COc1ccc(SC)c(OCCN2CCCCC2)c1C(O)CCc1ccc(O)cc1` (stereo not drawn) [compound 174], the LD50 came to 22 mg/kg.

The compound `CCOc1ccc(OC)c(C(O)CCc2ccc(O)cc2)c1OCCN1CCCCC1` (stereo not drawn) [compound 164] returned a median lethal dose (LD50) of 17 mg/kg.
